Consider two molecules from article PMC9144282 (Viruses, 2022).

Where two headings read alike, the source gives them in different places. Marks after values point to notes of the source that are not given here.

One data set relates to IL-1β. The data set can be described thus: xMAP inflammation biomarkers in HEp-2 cells. In kind it is cell-based, human. Particulars: two days after addition.
The test system of the next data set is HEp-2. The experiment in a line: MTT cytotoxicity test, HEp-2 cells. The following applies: HEp-2, MTT; concentration of the studied substance. Background: Tetrazolium assays rely on reduction of a dye to a coloured formazan, in cell work by metabolically active cells.
For data set [1], the system named is human cell lines (HEp-2, L41, HT-29). The experiment in a line: MTT cytotoxicity test, three human cell lines taken together. In kind it is cell-based.
A further data set has as its system IL-12(p70). The data set can be described thus: xMAP inflammation biomarkers in HEp-2 cells. In kind it is cell-based, human. The following applies: 2 days posttreatment, concentrations below CC50.
The next data set deals with IL-6. The data set can be described thus: xMAP inflammation biomarkers in HEp-2 cells. The following applies: 2 days posttreatment, concentrations below CC50. In kind it is cell-based, human.
The subject of another data set is MS2 Phage. The experiment in a line: RNase activity by RT^2-PCR, whole MS2 phage. In kind it is biochemical, bacteriophage MS2. The following applies: 0.1 mg/mL.
A further data set deals with IL-5. The experiment in a line: xMAP inflammation biomarkers in HEp-2 cells. In kind it is cell-based, human. The following applies: 2 days posttreatment, concentrations below CC50.
Data set [2] concerns HT-29.
For a further data set, the system named is IL-17A. The experiment in a line: xMAP inflammation biomarkers in HEp-2 cells. In kind it is cell-based, human. Particulars: 2 days posttreatment, concentrations below CC50.
Another data set deals with MS2 RNA. The experiment in a line: RNase activity by RT^2-PCR, isolated MS2 RNA. In kind it is biochemical, bacteriophage MS2. The following applies: 0.1 mg/mL, 37 °C.
Data set [3] deals with HT-29. The experiment in a line: MTT cytotoxicity test, HT-29 cells. The following applies: HT-29, MTT; concentration of the studied substance.
The next data set has as its system GM-CSF. The data set can be described thus: xMAP inflammation biomarkers in HEp-2 cells. The following applies: 2 days posttreatment, concentrations below CC50. In kind it is cell-based, human.
Data set [4] deals with L41.
For the next data set, the system named is TNFα. The experiment in a line: xMAP inflammation biomarkers in HEp-2 cells. In kind it is cell-based, human. Particulars: 2 days posttreatment, concentrations below CC50.
A further data set concerns IL-2. The data set can be described thus: xMAP inflammation biomarkers in HEp-2 cells. In kind it is cell-based, human. Particulars: 2 days posttreatment, concentrations below CC50.
Another data set relates to IL-4. The data set can be described thus: xMAP inflammation biomarkers in HEp-2 cells. The following applies: 2 days posttreatment, concentrations below CC50. In kind it is cell-based, human.
The target of data set [5] is SARS-CoV-2 recombinant antigen S2 (Severe acute respiratory syndrome coronavirus 2, UniProt P0DTC2).
The subject of a further data set is G-CSF. The experiment in a line: xMAP inflammation biomarkers in HEp-2 cells. The following applies: 2 days posttreatment, concentrations below CC50. In kind it is cell-based, human.
The test system of the next data set is IFNγ. The data set can be described thus: xMAP inflammation biomarkers in HEp-2 cells. In kind it is cell-based, human. The following applies: 2 days posttreatment, concentrations below CC50.
The next data set has as its system MCP-1 (MCAP). The experiment in a line: xMAP inflammation biomarkers in HEp-2 cells. In kind it is cell-based, human. Particulars: 2 days posttreatment, concentrations below CC50.
A further data set deals with IL-7. The data set can be described thus: xMAP inflammation biomarkers in HEp-2 cells. In kind it is cell-based, human. The following applies: 2 days posttreatment, concentrations below CC50.
For a further data set, the system named is IL-13. The experiment in a line: xMAP inflammation biomarkers in HEp-2 cells. The following applies: 2 days posttreatment, concentrations below CC50. In kind it is cell-based, human.
In a further data set the test system is SARS-CoV-2 RNA. In kind it is biochemical. The following applies: 0.1 mg/mL, 37 °C.
Data set [6] addresses SARS-CoV-2 recombinant antigen N (Severe acute respiratory syndrome coronavirus 2, UniProt P0DTC9).
Another data set relates to IL-8. The data set can be described thus: xMAP inflammation biomarkers in HEp-2 cells. In kind it is cell-based, human. The following applies: 2 days posttreatment, concentrations below CC50.
In the next data set the test system is IL-10. The data set can be described thus: xMAP inflammation biomarkers in HEp-2 cells. In kind it is cell-based, human. The following applies: 2 days posttreatment, concentrations below CC50.
The subject of another data set is MIP-1β. The experiment in a line: xMAP inflammation biomarkers in HEp-2 cells. The following applies: 2 days posttreatment, concentrations below CC50. In kind it is cell-based, human.
Data set [7] relates to L41. The experiment in a line: MTT cytotoxicity test, L41 cells. The following applies: concentration of the studied substance.
Data set [8] deals with influenza A viral and cellular RNA. Also noted: method as in earlier work. The following applies: 2 mM, 1 h at 37 °C; cited from earlier work.
Data set [9] can be described thus: Height of nanomaterials by AFM. In kind it is physicochemical.
A short description of data set [10]: Stability on storage / in media. In kind it is physicochemical. Particulars: storage in water solution.
Details of data set [11]: method as in earlier work. The following applies: cited from earlier work.
Data set [12] concerns SARS-CoV-2 RNA from COVID-19 Patient Blood. In kind it is biochemical.

The CC50 is the concentration at which the toxic effect on the cells reaches its halfway point.

On to `O=[N+]([O-])[O-].[Ag+]` [AgNO3], for which the IL1β production result with IL-1β is “up to 0.08 pg/mL”. The “Cytotoxic concentration CC50” value with HEp-2 is listed as 50 (31.75 Ag+) * μg/mL; with HT-29 [3], 100 (63.49 Ag+) μg/mL; with L41 [7] it was 100 (63.49 Ag+) μg/mL. In data set [1] (silver ions at 10 μg/mL), the “Toxicity for three human cell lines” value is listed as “not toxic”. Moreover, the “IL-12(p70), ratio of MFI to control intact cells” value in the data set with IL-12(p70) turned out to be 0.70. Moreover, in the data set with IL-6, the “IL-6, ratio of MFI to control intact cells” value came out at 0.85. Further, in the data set with MS2 Phage (37 °C (data not shown)), the “Incubation required for complete damage of RNA inside the MS2 phage” value is reported as “at least 1 h”. Also, the “IL-5, ratio of MFI to control intact cells” value in the data set on IL-5 worked out at 0.88. Further, the “CC50, corresponding concentration of Ag+” value with HT-29 [2] and with L41 [4] was 100 (63.49 Ag+) μg/mL throughout. Moreover, the “IL-17A, ratio of MFI to control intact cells” value in the data set on IL-17A amounted to 0.97. In addition, in the data set with MS2 RNA, the “Time for complete cleavage of isolated MS2 RNA” value was determined as 15 min. In the data set on GM-CSF, the “GM-CSF, ratio of MFI to control intact cells” value stood at 0.92. The “TNFα, ratio of MFI to control intact cells” value in the data set on TNFα is given as 1.15 ↑. The “IL-2, ratio of MFI to control intact cells” value in the data set with IL-2 amounted to 0.74. Besides, the “IL-4, ratio of MFI to control intact cells” value in the data set with IL-4 worked out at 0.84. The “Effect on binding of antigen S2 with polyclonal antibodies (ELISA)” value in data set [5] is listed as “inhibit binding”. In addition, the “Lowest concentration for significant reproducible binding suppression” value stood at 100 µg/mL in data set [5] (ELISA, antigen S2 with human polyclonal antibodies) and 100 µg/mL in data set [6]. The “G-CSF, ratio of MFI to control intact cells” value with G-CSF was 1.12 ↑. For the same molecule, the “IFNγ, ratio of MFI to control intact cells” value in the data set with IFNγ came out at 1.03. The “MCP-1 (MCAP), ratio of MFI to control intact cells” value in the data set on MCP-1 (MCAP) is 1.19 ↑. Further, the “IL-7, ratio of MFI to control intact cells” value in the data set with IL-7 came to 0.70. The “IL-13, ratio of MFI to control intact cells” value with IL-13 was 0.81. Besides, the “Incubation necessary for exhaustive hydrolysis of SARS-CoV-2 RNA” value in the data set on SARS-CoV-2 RNA is 1 h. Besides, the “ΔCt = Ct (sample) − Ct (control), SARS-CoV-2 RNA” value in the data set on SARS-CoV-2 RNA (RT^2-PCR) is recorded as 0.9. Further, the “Effect on binding of antigen N with polyclonal antibodies (ELISA)” value in data set [6] is reported as “inhibit binding”. In the data set on IL-8, the “IL-8, ratio of MFI to control intact cells” value was 3.71 ↑. Besides, the “IL-10, ratio of MFI to control intact cells” value in the data set on IL-10 stood at 0.78. Also, the “MIP-1β, ratio of MFI to control intact cells” value in the data set on MIP-1β is reported as 1.17 ↑.
Take Li^+[Ag^+2Cys2^−(OH^−)2(NH3)2] [Ag-2S]: in [8], the “Cleavage of total RNA” value was “Complete cleavage”. Moreover, the CC50 lay within 5.3 to 21.2 µg/mL in [1] (over the human cell lines (Table 1)) and 10 to 40 µM in [1] (range over the human cell lines, read-out: CC50). Also, the “Particle height range (AFM)” value in data set [9] (height distribution histograms, includes protein shell for Ag NCs-IgG) was 1–2 nm. Besides, in data set [9] (height histograms), the “Most probable height (AFM)” value is ~ 1 nm. Further, the “ΔCt = Ct (sample) − Ct (control), MS2 Phage” value in the data set on MS2 Phage (37 °C, RT^2-PCR) amounted to 7.5. In addition, in the data set on MS2 RNA, the “Time for complete cleavage of isolated MS2 RNA” value was found to be 15 min. Also, the “Cytotoxic concentration CC50” value in the data set on HT-29 [3] is on record as 15.9 (3.24 Ag+) μg/mL; in the data set on L41 [7], 21.2 (4.32 Ag+) μg/mL. Further, the “Stability of structure and physico-chemical properties during storage” value in data set [10] is listed as “up to 10 years”. Also, in data set [11], the “Damage of cellular DNA and viral antigens after incubation” value is “neither cellular DNA nor viral antigens were damaged”. Further, the “Incubation necessary for exhaustive hydrolysis of SARS-CoV-2 RNA” value in the data set on SARS-CoV-2 RNA is reported as 1 h. Also, the “ΔCt = Ct (sample) − Ct (control), SARS-CoV-2 RNA from COVID-19 Patient Blood” value in [12] is 1.6. For the same molecule, in data set [6], the “Effect on binding of antigen N with polyclonal antibodies (ELISA)” value is given as “did not significantly differ from the positive controls”.
